Laboratory results reported in ChEMBL document CHEMBL1141904, “Benzothiophenes containing a piperazine side chain as selective ligands for the estrogen receptor alpha and their bioactivities in vivo” (Bioorg Med Chem Lett, 2005).

Assays:
Estrogen receptor beta = Estrogen receptor beta (Homo sapiens, UniProt Q92731); test: Inhibition of estrogen receptor beta
Estrogen receptor = target: T1, Estrogen receptor (Homo sapiens, UniProt P03372)
T1 sequence (P03372 whole entry): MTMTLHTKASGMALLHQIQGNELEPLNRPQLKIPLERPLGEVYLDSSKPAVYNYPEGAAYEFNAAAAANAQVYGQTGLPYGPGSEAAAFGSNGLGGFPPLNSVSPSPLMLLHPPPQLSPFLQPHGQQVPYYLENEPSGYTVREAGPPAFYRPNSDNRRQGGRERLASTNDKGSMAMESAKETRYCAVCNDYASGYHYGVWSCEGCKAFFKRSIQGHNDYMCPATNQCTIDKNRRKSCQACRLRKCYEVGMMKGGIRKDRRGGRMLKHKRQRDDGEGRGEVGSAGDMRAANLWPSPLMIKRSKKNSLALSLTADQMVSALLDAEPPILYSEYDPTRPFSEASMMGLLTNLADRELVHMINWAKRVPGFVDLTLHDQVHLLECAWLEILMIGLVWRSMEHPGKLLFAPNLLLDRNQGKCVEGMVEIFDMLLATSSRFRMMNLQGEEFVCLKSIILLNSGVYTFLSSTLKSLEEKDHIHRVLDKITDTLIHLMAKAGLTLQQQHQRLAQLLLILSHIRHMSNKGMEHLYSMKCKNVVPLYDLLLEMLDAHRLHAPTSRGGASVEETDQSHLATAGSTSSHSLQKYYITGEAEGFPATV
Description: Inhibition of estrogen receptor alpha

[1] = target: T2, Estrogen receptor (Mus musculus) (UniProt P19785)
T2 sequence (whole entry): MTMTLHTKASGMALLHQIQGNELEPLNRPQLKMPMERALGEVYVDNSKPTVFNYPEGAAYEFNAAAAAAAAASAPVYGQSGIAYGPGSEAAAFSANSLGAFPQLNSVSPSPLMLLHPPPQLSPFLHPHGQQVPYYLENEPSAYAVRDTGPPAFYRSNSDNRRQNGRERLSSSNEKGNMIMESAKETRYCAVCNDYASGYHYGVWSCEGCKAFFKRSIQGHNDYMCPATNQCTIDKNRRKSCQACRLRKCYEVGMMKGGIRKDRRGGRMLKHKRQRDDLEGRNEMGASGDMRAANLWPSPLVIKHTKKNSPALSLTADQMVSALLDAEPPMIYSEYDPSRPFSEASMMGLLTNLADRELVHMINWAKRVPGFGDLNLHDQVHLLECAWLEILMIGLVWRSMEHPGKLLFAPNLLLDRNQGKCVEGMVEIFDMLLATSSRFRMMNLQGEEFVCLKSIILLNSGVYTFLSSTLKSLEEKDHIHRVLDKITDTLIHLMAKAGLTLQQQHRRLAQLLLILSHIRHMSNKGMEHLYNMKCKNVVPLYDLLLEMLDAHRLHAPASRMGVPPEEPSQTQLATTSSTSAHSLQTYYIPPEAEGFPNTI
Description: Bone mineral density of compound was determined in vivo against estrogen receptor alpha

[2] = target: T2, Estrogen receptor (Mus musculus); settings: Uterus
Description: Uterine weight assay of compound was determined in vivo against estrogen receptor alpha

Sequence of Estrogen receptor beta (Q92731 whole entry): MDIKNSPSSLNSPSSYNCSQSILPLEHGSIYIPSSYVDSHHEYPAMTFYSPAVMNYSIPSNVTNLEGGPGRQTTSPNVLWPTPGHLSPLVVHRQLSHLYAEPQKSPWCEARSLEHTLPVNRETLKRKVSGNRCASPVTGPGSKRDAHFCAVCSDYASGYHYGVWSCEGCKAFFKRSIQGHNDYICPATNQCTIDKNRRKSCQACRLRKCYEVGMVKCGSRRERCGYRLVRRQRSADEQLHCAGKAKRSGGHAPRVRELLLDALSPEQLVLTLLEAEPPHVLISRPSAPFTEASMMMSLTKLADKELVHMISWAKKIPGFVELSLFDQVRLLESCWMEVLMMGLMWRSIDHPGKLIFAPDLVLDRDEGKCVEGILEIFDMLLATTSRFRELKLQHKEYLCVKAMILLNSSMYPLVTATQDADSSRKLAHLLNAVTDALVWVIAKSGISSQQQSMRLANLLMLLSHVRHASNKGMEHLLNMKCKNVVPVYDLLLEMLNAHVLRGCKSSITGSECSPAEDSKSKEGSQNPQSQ

Compound	IC50 (Estrogen receptor beta) [nM]	IC50 (Estrogen receptor) [nM]	Bone mineral density [1] [mg/cubic cm]	Uterine weight [2] [mg]
O=C(c1ccc(N2CCN(Cc3ccc([N+](=O)[O-])cc3)CC2)cc1)c1c(-c2ccc(O)cc2)sc2cc(O)ccc12	14.2			
Cc1cc(C)nc(N2CCN(c3ccc(C(=O)c4c(-c5ccc(O)cc5)sc5cc(O)ccc45)cc3)CC2)n1	66.5	2.12		
CC(C)N1CCN(c2ccc(C(=O)c3c(-c4ccc(O)cc4)sc4cc(O)ccc34)cc2)CC1	33.9	0.28	541	38.8
CCCN1CCN(c2ccc(C(=O)c3c(-c4ccc(O)cc4)sc4cc(O)ccc34)cc2)CC1	29.4	1.43		
O=C(c1ccc(N2CCN(C(=O)c3cccc(O)c3)CC2)cc1)c1c(-c2ccc(O)cc2)sc2cc(O)ccc12	19.8	1.39		
Cc1ccccc1C(=O)N1CCN(c2ccc(C(=O)c3c(-c4ccc(O)cc4)sc4cc(O)ccc34)cc2)CC1	17.7	3.94		
O=C(c1ccc(N2CCN(C(=O)c3ccco3)CC2)cc1)c1c(-c2ccc(O)cc2)sc2cc(O)ccc12	20.1	2.65		
O=C(c1ccc(N2CCN(c3ccc(Cl)cc3)CC2)cc1)c1c(-c2ccc(O)cc2)sc2cc(O)ccc12	9.07	0.22	482	30.5
O=C(c1ccc(N2CCN(C(=O)c3ccncc3)CC2)cc1)c1c(-c2ccc(O)cc2)sc2cc(O)ccc12	93.6	14.5		
O=C(c1ccc(N2CCN(C3CCCC3)CC2)cc1)c1c(-c2ccc(O)cc2)sc2cc(O)ccc12	18.1	1.08		
O=C(c1ccc(N2CCN(C(=O)c3ccccc3)CC2)cc1)c1c(-c2ccc(O)cc2)sc2cc(O)ccc12	25.3	0.86		

Further lines, results first:

IC50 (Estrogen receptor beta) [nM]	IC50 (Estrogen receptor) [nM]	Bone mineral density [1] [mg/cubic cm]	Uterine weight [2] [mg]	Compound
3.7	0.46	432	29.3	O=C(c1ccc(N2CCN(C(=O)c3cccc(Cl)c3)CC2)cc1)c1c(-c2ccc(O)cc2)sc2cc(O)ccc12
12.9	3.58			O=C(c1ccc(N2CCN(C(=O)c3ccccc3[N+](=O)[O-])CC2)cc1)c1c(-c2ccc(O)cc2)sc2cc(O)ccc12
3.21	1.72			O=C(c1ccc(N2CCN(C(=O)c3ccccc3Cl)CC2)cc1)c1c(-c2ccc(O)cc2)sc2cc(O)ccc12
4.02	0.78			O=C(c1ccc(N2CCN(C(=O)c3ccc(Cl)cc3)CC2)cc1)c1c(-c2ccc(O)cc2)sc2cc(O)ccc12
12.5	0.27			Cc1cccc(C(=O)N2CCN(c3ccc(C(=O)c4c(-c5ccc(O)cc5)sc5cc(O)ccc45)cc3)CC2)c1
5.53	0.97			O=C(c1ccc(N2CCN(Cc3ccccc3)CC2)cc1)c1c(-c2ccc(O)cc2)sc2cc(O)ccc12
1.27	2.15			O=C(c1ccc(N2CCN(C(=O)c3ccc([N+](=O)[O-])cc3)CC2)cc1)c1c(-c2ccc(O)cc2)sc2cc(O)ccc12
4.94	2.74			Cc1ccc(C(=O)N2CCN(c3ccc(C(=O)c4c(-c5ccc(O)cc5)sc5cc(O)ccc45)cc3)CC2)cc1
7.92	3.05			O=C(c1ccc(N2CCN(C(=O)c3ccccc3O)CC2)cc1)c1c(-c2ccc(O)cc2)sc2cc(O)ccc12
